Measurements reported in patent publication US10323228B2, “Differentiation of hepatocyte-like cells from stem cells” (Agency for Science, Technology and Research, priority 2014, dated 2019).
Where two headings read alike, the source gives them in different places.

Columns and labels:
[1] = system: hESCs (H9); assay: qPCR of pluripotency and definitive endoderm markers in hESCs treated for 6 days; assay type: cell-based, human; settings: among small molecule combinations
Procedure: hESC cell line, H9 (WiCell Research Institute, Madison, Wis.) was cultured and propagated on tissue culture plates coated with matrigel (BD Biosciences, San Jose, Calif., USA) in mTeSRTM 1 media (Stem Cell Technologies, Vancouver, BC, Canada). Cultures were passaged at intervals of 5-7 days by incubation with 1 mg/ml dispase (Stem Cell Technologies) for 5 minutes at 37° C. Colonies were picked under microscopic guidance and replated at 1:3 to 1:6 split ratios. […] (20 ng/ml). […] In human embryonic stem cells (hESCs), manipulations of Nodal and Wnt signaling have been exploited to direct differentiation towards definitive endoderm (DE). […] Therefore, to induce differentiation of HESCs into definitive endoderm using small molecules, the present study analyzed effects of compounds which could substitute for Activin A or/and Wnt signaling. […] Cells were cultured in the presence of diverse combinations of these three compounds for 6 days, and expression of pluripotency marker (OCT4) and definitive endoderm markers (SOX17 and FoxA2) were analyzed using qPCR. […] The expression of pluripotency markers (OCT4, Nanog and SOX2) and definitive endoderm (DE) markers (SOX17 and FOXA2) were analyzed using qPCR. […]

[2] = system: primary human hepatocytes (PH, PHHs); assay: Cell viability assay (MTT) of primary human hepatocytes after 24 hours drug treatment; assay type: cell-based; settings: Hepatocyte, read-out: IC50 PH
Procedure: Cryopreserved PHHs were obtained from Life Technologies (Carlsbad, Calif., USA) and BD Biosciences (Franklin Lakes, N.J., USA). The cells were thawed in a 37° C. water bath and resuspended in pre-warmed InVitroGRO HT Thawing Medium (Celsis, In Vitro Technologies, Baltimore, Md., USA). The cells were centrifuged at 800 rpm at 4° C. and the cell pellet was resuspended in InVitroGRO CP Plating Medium (containing 0.02% Torpedo Antibiotic Mix). Cells were counted and 50,000 cells were plated into each well of 96-well plates (Nunc, Naperville, Ill., USA) pre-coated with neutralized 1.5 mg/ml PureCol® Bovine Collagen solution, Type 1 (Advanced Biomatrix, San Diego, Calif., USA). After allowing for cell attachment for 4 hours, the media was changed to William's media E (Sigma-Aldrich, Singapore), supplemented with 1 mg/ml bovine serum albumin (Sigma), 1× insulin-transferrin-selenium and 1×MEM non-essential amino acids (Gibco, Carlsbad, Calif., USA), 100 nM dexamethasone (Sigma), 0.3 mg/ml L-glutamine (Lonza, Basel, Switzerland), 100 U/ml penicillin and 100 μg/ml streptomycin (Cellgro, Manassas, Va.). Culture medium was changed daily. Three different lots of hepatocytes were used for the experiments. All assays were performed after 2 days of culture.
(§1) Cell viability of differentiated hepatocytes was measured 24 hours after treatment with drugs using CellTiter 96® Non-Radioactive Cell Proliferation Assay (MTT) (Promega, Madison, Wis., USA) according to manufacturer's instructions. The following drugs were used for the cell viability assays: Acetaminophen, Diclofenac, Digoxin, Chlorpromazine, Troglitazone and Quinidine (all drugs from Sigma). Stock solutions of drugs were prepared in DMSO and then diluted in media to obtain desired working concentrations. Controls were treated with DMSO alone (in absence of test compounds) and considered as 100% viability value.
(§2) One of the major applications of hepatocytes is toxicity screening in order to aid drug development and discovery. Researchers have tried to predict drug-induced cytotoxicity in vitro using HepG2, HepaRG primary human hepatocyte (PH) as well as hESC/hiPSC-derived hepatocyte like cells. Although primary human hepatocyte (PH) are considered the gold standard for drug metabolism and toxicity in vitro, cells lines such as HepG2 and HepaRG are less expensive than primary human hepatocyte (PH) and reproducible experiments are easier to perform than they are with primary human hepatocyte (PHs). However, 30% of the compounds were incorrectly classified as nontoxic. To overcome these problems, it would be highly advantageous if hESC/hiPSC derived hepatocytes could be used to predict drug-induced toxicity. To examine its applicability to drug screening, small molecule-derived hepatocytes (SM-Hep) were treated with various drugs that cause hepatotoxicity. Cell viability, assessed using MTT assay, was compared to growth factor-derived hepatoctyes (GF-Hep) as well as primary human hepatocyte (PH). The susceptibility of small molecule-derived hepatocytes (SM-Hep) to all the drugs tested was similar to that of the growth factor-derived hepatoctyes (GF-Hep) (FIG. 6).

[3] = system: SM-Hep (hepatocytes derived from hESCs using small molecules); assay: Cell viability assay (MTT) of small molecule-derived hepatocytes after 24 hours drug treatment; assay type: cell-based; settings: Homo sapiens, Hepatocyte, read-out: IC50 SM-Hep
Procedure: (§3) The differentiation was initiated when hESCs reached a confluence level of approximately 80%. […] Briefly, basal differentiation medium was composed of 60% DMEM-low glucose (Gibco, Carlsbad, Calif., USA), 40% MCDB-201-water (Sigma), 0.25× Linoleic acid—Bovine serum albumin (LA-BSA) (Sigma), 0.25× Insulin-transferrin-selenium (ITS) (Sigma), 100 U/mL Penicillin and 100 μg/mL Streptomycin (Cellgro), 0.1 mM L-Ascorbic Acid (Sigma), 1 μM Dexamethasone (Sigma) and 110 μM 2-mercaptoethanol (Gibco).
as §1, §2

[4] = system: GF-Hep (hepatocytes derived from hESCs using growth factors); assay: Cell viability assay (MTT) of growth factor-derived hepatocytes after 24 hours drug treatment; assay type: cell-based; settings: Homo sapiens, Hepatocyte, read-out: IC50 GF-Hep
Procedure: as §3, §1, §2

[5] = Table 1 (initial results), cell viability, 24 hours treatment
[6] = Table 2 (updated results), cell viability, 24 hours treatment, PHHs

SMILES	FOXA2 expression [1]	SOX17 expression [1]	IC50 [2, 5]	IC50 [2, 6]	IC50 [3, 5]	IC50 [4, 5]	IC50 [2]	IC50 ([3]; 24 h)	IC50 ([4]; 24 h)
O=C(O)CCCCCC(=O)NN=C1CCCC1 [IDE-2]	highest FOXA2 expression	no SOX17 expression was detected							
C=C[C@H]1C[N@@]2CC[C@H]1C[C@@H]2[C@@H](O)c1ccnc2ccc(OC)cc12 [Quinidine]			198 µM	563 µM	728 µM	538 µM			
CC(=O)Nc1ccc(O)cc1 [Acetaminophen]			45200 µM	45200 µM	38100 µM	46000 µM			
O=C(O)Cc1ccccc1Nc1c(Cl)cccc1Cl [Diclofenac]			3590 µM	3590 µM	1930 µM	1860 µM			
C[C@H]1O[C@@H](O[C@H]2[C@@H](O)C[C@H](O[C@H]3[C@@H](O)C[C@H](O[C@H]4CC[C@@]5(C)[C@H](CC[C@@H]6[C@@H]5C[C@@H](O)[C@]5(C)[C@@H](C7=CC(=O)OC7)CC[C@]65O)C4)O[C@@H]3C)O[C@@H]2C)C[C@H](O)[C@@H]1O [Digoxin]							0.34 µM	0.36 µM	0.25 µM
Cc1c(C)c2c(c(C)c1O)CCC(C)(COc1ccc(CC3SC(=O)NC3=O)cc1)O2 (stereo not shown) [Troglitazone]			85 µM	29.7 µM	31.9 µM	33.7 µM			
CN(C)CCCN1c2ccccc2Sc2ccc(Cl)cc21 [Chlorpromazine]			71.8 µM	71.8 µM	66.9 µM	61.3 µM			
